Key:
[1] = human, mda-mb-231, 2 h
[2] = human, mda-mb-231, 24 h

Question: Which Drug uptake [1] does the source give for `CC(=O)O[C@H]1C(=O)[C@@]2(C)[C@H]([C@H](OC(=O)c3ccccc3)[C@]3(O)C[C@H](OC(=O)[C@H](O)[C@@H](NC(=O)c4ccccc4)c4ccccc4)C(C)=C1C3(C)C)[C@]1(OC(C)=O)CO[C@@H]1C[C@@H]2O` [PACLITAXEL] here?
Answer: Active

Question: And the Drug uptake [2]?
Answer: Active

From ChEMBL document CHEMBL5625193, “Modulation of taxane binding to tubulin curved and straight conformations by systematic 3'N modification provides for improved microtubule binding, persistent cytotoxicity and in vivo potency” (Eur J Med Chem, 2023)
